{
  "source": "patent US7449292B2",
  "about": "“Methods for predicting relative efficacy of a beta blocker therapy based on a B1-adrenergic receptor polymorphism” (University of Cincinnati, priority 2003, dated 2008)",
  "system": "cardiac β1-AR (position 389 genotype)",
  "assay_type": "in vivo, human",
  "conditions": "Gly389/Arg389 heterozygous heart failure patients; difference before vs after >6 months on a stable dose",
  "method": "The study was approved by the University of Cincinnati Institutional Review Board and the patients gave informed consent. […] LVEF was determined by radionuclide ventriculography before initiation of drug treatment and after a maintenance period of >6 months on a stable dose. The change in LVEF was reported as the difference between values before and after drug treatment.",
  "data": [
    {"smiles": "COc1ccccc1OCCNCC(O)COc1cccc2[nH]c3ccccc3c12", "note": "(stereo not shown) [carvedilol]", "values": [
      {"measurement": "improvement in LVEF", "value": "improvement similar to that of Arg389-homozygous patients"}
    ]}
  ]
}
